Measurements taken from BindingDB's records for doi:10.1016/s0960-894x(04)00332-4 (Aventis Pharma, 2004).

Molecular target: Beta-lactamase P99 (Enterobacter cloacae) (UniProt P05364)
Assay: Time dependent inhibition of hydrolysis of nitrocefin after 5 min pre-incubation with P99 beta-lactamases (class C)

Beta-lactamase P99 (Enterobacter cloacae), sequence (P05364 whole entry, looked up): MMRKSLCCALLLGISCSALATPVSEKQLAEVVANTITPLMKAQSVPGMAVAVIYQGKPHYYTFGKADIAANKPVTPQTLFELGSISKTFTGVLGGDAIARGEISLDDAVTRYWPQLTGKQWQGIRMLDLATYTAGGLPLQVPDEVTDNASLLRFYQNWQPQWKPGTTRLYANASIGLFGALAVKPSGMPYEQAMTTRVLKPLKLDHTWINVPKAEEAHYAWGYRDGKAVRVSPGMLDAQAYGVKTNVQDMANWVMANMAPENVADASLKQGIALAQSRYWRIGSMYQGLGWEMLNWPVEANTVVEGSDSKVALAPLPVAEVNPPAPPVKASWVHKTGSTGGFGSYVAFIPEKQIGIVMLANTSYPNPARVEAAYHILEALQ

Row | Compound | IC50 [µM]
1 | CC[C@@H]1C(=O)N2C[C@@H]1C=C(OC)C2C(=O)OCc1ccc([N+](=O)[O-])cc1 (stereo partly drawn) [(1S,5R,6S)-6-Ethyl-3-methoxy-7-oxo-1-aza-bicyclo[3.2.1]oct-3-ene-2-carboxylic acid 4-nitro-benzyl ester] | 210

Molecular target: Beta-lactamase P99 (Enterobacter cloacae) (UniProt P05364)
Assay: Inhibition of hydrolysis of nitrocefin after 5 min pre-incubation with P99 beta-lactamases (class C)

Row | Compound | IC50 [µM]
2 | COC1=C(C(=O)OCc2ccc([N+](=O)[O-])cc2)N2C[C@@H](CC2=O)C1 [(1S,5R)-3-Methoxy-7-oxo-1-aza-bicyclo[3.2.1]oct-2-ene-2-carboxylic acid 4-nitro-benzyl ester] | 160
3 | CC[C@@H]1C(=O)N2C[C@@H]1CC(OC)=C2C(=O)O [(1S,5R,6S)-6-Ethyl-3-methoxy-7-oxo-1-aza-bicyclo[3.2.1]oct-2-ene-2-carboxylic acid] | 100
4 | CC[C@@H]1C(=O)N2C[C@@H]1CC(OC)=C2C(=O)OCc1ccc([N+](=O)[O-])cc1 [(1S,5R,6S)-6-Ethyl-3-methoxy-7-oxo-1-aza-bicyclo[3.2.1]oct-2-ene-2-carboxylic acid 4-nitro-benzyl ester] | 300
5 | COC1=C[C@@H]2CC(=O)N(C2)C1C(=O)OCc1ccc([N+](=O)[O-])cc1 (stereo partly drawn) [(1S,5S)-3-Methoxy-7-oxo-1-aza-bicyclo[3.2.1]oct-3-ene-2-carboxylic acid 4-nitro-benzyl ester] | 25
6 | COC1=C[C@@H]2CC(=O)N(C2)C1C(=O)O (stereo partly drawn) [(1S,5S)-3-Methoxy-7-oxo-1-aza-bicyclo[3.2.1]oct-3-ene-2-carboxylic acid] | 140
